According to patent US10407488B2, “Therapy for treatment or prevention of conditions associated with bleeding or hypocoagulation” (THE REGENTS OF THE UNIVERSITY OF CALIFORNIA, priority 2013, dated 2019):

Columns and labels:
Balb/c mice = test: Liver laceration bleeding assay, APC-induced bleeding in Balb/c mice; format: in vivo
Procedure: Mice were anesthetized with Isofluorane 3% and the abdomen was opened by substernal blunt midline dissection. […] Immediately after laceration mice were positioned prone into a small weighing dish (8 cm diameter) filled with saline (37° C., 13 mL), transferred into the anesthesia chamber which rested on a heating pad (37° C.). Anesthesia was maintained at 3% Isofluorane and dishes were changed after 10 minutes to collect blood for the first and second 10 minutes separately. Blood loss was determined as described for the tail clip model. Groups of Balb/c mice were injected intravenously (tail vein) with equal volumes (200 μL) of ^superFVa or saline 2 minutes prior to intravenous injection of plasma-derived human APC, followed immediately by liver laceration. All agents were diluted in sterile sodium chloride 0.9% for injection (Hospira Inc).

[1] = test system: thrombin generation in patient plasma; test: Thrombin generation in plasma of inhibitor patients before and 5 minutes after rhFVIIa infusion, ^superFVa added ex vivo; format: biochemical, human
From the text: Normal pooled human plasma and plasma from human FVIII-deficient patients with and without inhibitors (titer specified in Bethesda Units (BU)) was purchased from George King Bio-Medical (Overland Park, Kans., USA). In addition, plasma and clinical information was obtained from two patients with severe FVIII-deficiency (<1% intrinsic FVIII-activity levels) and inhibitors (titers determined in BU by the clinical laboratory using the Nijmegen assay (17) regularly visiting the Hemophilia Treatment Center at the University of California, San Diego (UCSD) after informed consent was obtained. Patient confidentiality safeguards, sample and data acquisition methods were approved by the UCSD Institutional Review Board. Blood was drawn into 3.8% sodium citrate (pH 5.5) at a 9:1 blood/anticoagulant volume ratio, and processed immediately. Plasma was collected and frozen at −80° C. after centrifugation at 2600×g for 15 minutes. The following reagents were used: Thrombin from Enzyme Research Laboratories (South Bend, Ind., USA), hirudin from Calbiochem (San Diego, Calif., USA), Corn trypsin inhibitor (CTI) from Enzyme Research Laboratories, thrombin calibrator from Synapse BV (distributed by Diagnostica Stago), Substrate Z-Gly-Gly-Arg-AMC from Bachem (Bubendorf Switzerland), recombinant human tissue factor (TF), Dade Innovin from Dade Behring (Newark, Del., USA), mouse anti-human FVIII (GMA8015) and isotype antibody (GMA650) from Green mountain antibodies (Burlington, Vt., USA), recombinant human FVIIa, NovoSeven®, from NovoNordisk (Bagsvaerd, Denmark), Phospholipid vesicles (80% phosphatidylcholine (PC), 20% phosphatidylserine (PS)) were purchased from Avanti Lipids (Alabaster, Ala., USA) and prepared as described (18).
(§1) Endogenous thrombin potential (ETP) assays were performed as described (19). Briefly, plasma samples supplemented with CTI, TF, PCPS vesicles and coagulation factors were preincubated with the plasma at 37° C. Thrombin generation was initiated by addition of CaCl2 and Z-Gly-Gly-Arg-AMC in HBS/0.5% BSA. The final reaction mixture contained, 50% plasma, 0.2 pM TF, […] PCPS vesicles, 0.725 μM CTI, 0.5 mM Z-GGR-AMC and 7.6 mM CaCl2 in a total volume of 100 μL. In some experiments, 1.25 μg/ml anti-FVIII antibody was added to the plasma and ETP was determined after 1 hour of preincubation. Fluorescence was measured at excitation/emission wavelengths of […] using Gemini EM fluorescent plate reader (Molecular Devices). Fluorescence time course data were converted to nM thrombin as described (20). ETP, defined as the area under the curve (AUC) and the peak height were determined using Origin or GraphPad Prism software.
This example relates to the experiments the results of which are contained in FIG. 5. […]

[2] = test system: thrombin generation in FVIII-deficient plasma; test: Thrombin generation (ETP) assay in FVIII-deficient plasma; format: biochemical, human; conditions: increasing concentrations of ^superFVa alone
Procedure: as §1

[3] = increasing ^superFVa added ex vivo, plasma before and 5 minutes after rhFVIIa infusion

“^superFVa: engineered APC-resistant FVa variant (SEQ ID NO:4): R306Q, R506Q, R679Q, Cys609-Cys1691 disulfide, S2183A, B-domain deleted” was tested, and the mean blood loss (Balb/c mice; ^superFVa (25 U/mL) prior to APC 1.25 mg/kg, 20 minutes after liver laceration) was 29 µL/g, the bleeding-induced mortality (Balb/c mice; ^superFVa prior to APC, liver laceration) was “abolished bleeding-induced mortality” and the “bleeding during the 2nd 10 min phase” value (Balb/c mice; ^superFVa prior to wt APC, liver laceration) was “fully prevented bleeding”. For the same substance, the “^superFVa concentration at which ETP plateaued” value ([1]; Patient A, BU=64) was 10 nM, the “additional increase of ETP” value [1, 3] was about 3 fold and the “additional increase of peak height” value [1, 3] was about 3 fold. The “^superFVa concentration at which ETP plateaued” value ([1]; patient with BU=64) was 1.76 µg/mL, the “increase in ETP” value [2] was about 2.5 fold and the “increase in peak height” value [2] was about 2.5 fold.
